Results reported in US7790894B2, “Mycobacterial inhibitors” (Janssen Pharmaceutica NV, priority 2004, dated 2010).

System: M. Smegmatis ATCC607
Experiment: In-vitro anti-bacterial activity against strain M. smegmatis ATCC607 (growth inhibition, Alamar Blue fluorescence)
Format: cell-based
Conditions: Mycolicibacterium smegmatis, ATCC607, 48 h, strain ATCC607, 48 hours at 37° C., read-out: M. smegmatis pIC50 (converted)
Procedure: D.2. In-Vitro Method for Testing Compounds for Anti-Bacterial Activity Against Strain M. Smegmatis ATCC607 Flat-bottom, sterile 96-well plastic microtiter plates were filled with 180 μl of sterile deionized water, supplemented with 0.25% BSA. […] Serial five-fold dilutions (45 μl in 180 μl) were made directly in the microtiter plates from column 2 to 11 using a customised robot system (Zymark Corp. Hopkinton, Mass.). Pipette tips were changed after every 3 dilutions to minimize pipetting errors with high hydrophobic compounds. […] Approximately 250 CFU per well of bacteria inoculum, in a volume of 100 μl in 2.8× Mueller-Hinton broth medium, was added to the rows […]. The same volume of broth medium without inoculum was added to column 12 in row A to H. The cultures were incubated at 37° C. for 48 hours in a humidified 5% CO2 atmosphere (incubator with open air valve and continuous ventilation). At the end of incubation, two days after inoculation, the bacterial growth was quantitated fluorometrically. Therefore Alamar Blue (10×) was added to all wells in a volume of 20 μl and plates were incubated for another 2 hours at […] The fluorescence was read in a computer-controlled fluorometer (Cytofluor, Biosearch) at an excitation wavelength of 530 nm and an emission wavelength of 590 nm (gain 30). The % growth inhibition achieved by the compounds was calculated according to standard methods. The pIC50 was defined as the 50% inhibitory concentration for bacterial growth.

Compound	IC50
CCc1cc2cc(C(c3ccccc3)C(O)(CCN(C)C)c3cc(F)cc(F)c3)ccc2nc1Cl (single isomer, unassigned) [Compound 15]	0.398 µM
CN(C)CC[C@](O)(c1cccc(F)c1)C(Cc1ccccc1)c1ccc2cc(Br)ccc2n1 (stereo partly shown) [Compound 1]	0.631 µM
CN(C)CC[C@](O)(c1cccc2ccccc12)C(Cc1ccccc1)c1ccc2cc(Br)ccc2n1 (stereo partly shown) [Compound 2]	0.316 µM
CN(C)CC[C@@](O)(c1cccc2ccccc12)C(Cc1ccccc1)c1ccc2cc(Br)ccc2n1 (stereo partly shown) [Compound 3]	2 µM
CN(C)CC[C@@](O)(c1cccc(F)c1)C(c1ccccc1)c1ccc2cc(Br)ccc2n1 (stereo partly shown) [Compound 6]	12.6 µM
CCc1cc2ccc([C@H](c3ccccc3)[C@@](O)(CCN(C)C)c3cccc4ccccc34)cc2nc1Cl [Compound 8]	1.58 µM
CCc1cc2ccc([C@H](c3ccccc3)[C@@](O)(CCN(C)C)c3cc(F)cc(F)c3)cc2nc1Cl [Compound 10]	1.26 µM
CN(C)CC[C@](O)(c1cc(F)cc(F)c1)[C@@H](c1ccccc1)c1cc(Br)cc2c(-c3ccccc3)cc(Cl)nc12 [Compound 11]	2 µM

Same assay, conditions: strain ATCC607, 48 hours at 37° C.

Compound	M. smegmatis pIC50
CCc1cc2ccc([C@H](c3ccccc3)[C@@](O)(CCN(C)C)c3cc(F)cc(F)c3)cc2nc1Cl [Compound 9]	5.8

System: Mycobacterium tuberculosis (strain H37RV)
Experiment: In-vitro testing against M. tuberculosis (growth inhibition, Resazurin fluorescence)
Format: cell-based
Conditions: 168 h, 7 days at 37° C., bacterial growth, read-out: M. tuberculosis pIC50 (converted)

Compound	IC50
CCc1cc2cc(C(c3ccccc3)C(O)(CCN(C)C)c3cc(F)cc(F)c3)ccc2nc1Cl (single isomer, unassigned) [Compound 15]	10 µM
CCc1cc2ccc([C@H](c3ccccc3)[C@@](O)(CCN(C)C)c3cc(F)cc(F)c3)cc2nc1Cl [Compound 10]	7.94 µM

System: not given
Experiment: not given
Conditions: not given

Compound	melting point
CN(C)CC[C@](O)(c1cccc(F)c1)C(Cc1ccccc1)c1ccc2cc(Br)ccc2n1 (stereo partly shown) [Compound 1]	136 °C
CN(C)CC[C@](O)(c1cccc2ccccc12)C(Cc1ccccc1)c1ccc2cc(Br)ccc2n1 (stereo partly shown) [Compound 2]	143 °C
CN(C)CC[C@@](O)(c1cccc2ccccc12)C(Cc1ccccc1)c1ccc2cc(Br)ccc2n1 (stereo partly shown) [Compound 3]	69 °C
CN(C)CC[C@@](O)(c1cccc(F)c1)C(c1ccccc1)c1ccc2cc(Br)ccc2n1 (stereo partly shown) [Compound 6]	134 °C
CN(C)CC[C@](O)(c1cc(F)cc(F)c1)[C@@H](c1ccccc1)c1cc(Br)cc2c(-c3ccccc3)cc(Cl)nc12 [Compound 11]	220 °C
